From patent publication US20260297081A1, “COMPOUNDS AND METHODS OF TREATING CANCERS” (Cullgen Inc., priority 2023, published 2026)

system: MCF7 cells; assay: Anti-proliferation (viability) of MCF7 cells (Table 7, FIG. 2B); type: cell-based; conditions: Homo sapiens, MCF7, MCF7 cells, 3-6 days, 10-point serial dilution; read-out: GI IC50 in MCF-7

Structure (SMILES) | IC50
CNc1ccc(C(=O)Nc2ccc(N(C)C)nn2)c(NC2CC3(C2)CN(C(=O)CCN2CCN(c4ccc(Nc5ncc6c(C)c(C(C)=O)c(=O)n(C7CCCC7)c6n5)nc4)CC2(C)C)C3)n1 [CPD-267, 2-((2-(3-(4-(6-((6-acetyl-8-cyclopentyl-5-methyl-7-oxo-7,8-dihydropyrido[2,3-d]pyrimidin-2-yl)amino)pyridin-3-yl)-2,2-dimethylpiperazin-1-yl)propanoyl)-2-azaspiro[3.3]heptan-6-yl)amino)-N-(6-(dimethylamino)pyridazin-3-yl)-6-(methylamino)nicotinamide] | < 50 nM
CNc1ccc(C(=O)Nc2ccc(N(C)C)nn2)c(NC2CC3(C2)CN(C(=O)C2CN(C4CCN(c5ccc(Nc6ncc7c(C)c(C(C)=O)c(=O)n(C8CCCC8)c7n6)nc5)CC4)C2)C3)n1 [CPD-364, 2-((2-(1-(1-(6-((6-acetyl-8-cyclopentyl-5-methyl-7-oxo-7,8-dihydropyrido[2,3-d]pyrimidin-2-yl)amino)pyridin-3-yl)piperidin-4-yl)azetidine-3-carbonyl)-2-azaspiro[3.3]heptan-6-yl)amino)-N-(6-(dimethylamino)pyridazin-3-yl)-6-(methylamino)nicotinamide] | > 100 nM
CC(=O)c1c(C)c2cnc(Nc3ccc(N4CCN(CC(=O)NC5CC6(C5)CC(Nc5nc(NC(C)C)ccc5C(=O)Nc5cc(C)n(C7CC7)n5)C6)CC4)cn3)nc2n(C2CCCC2)c1=O (stereo not shown) [CPD-452, 2-((6-(2-(4-(6-((6-acetyl-8-cyclopentyl-5-methyl-7-oxo-7,8-dihydropyrido[2,3-d]pyrimidin-2-yl)amino)pyridin-3-yl)piperazin-1-yl)acetamido)spiro[3.31]heptan-2-yl)amino)-N-(1-cyclopropyl-5-methyl-1H-pyrazol-3-yl)-6-(isopropylamino)nicotinamide] | < 50 nM
CC(=O)c1c(C)c2cnc(Nc3ccc(N4CCC(NCC(=O)N5CCC(Nc6nc(NC(C)C)ccc6C(=O)Nc6ccc(N(C)C)nn6)CC5)CC4)cn3)nc2n(C2CCCC2)c1=O [CPD-357, 2-((1-((1-(6-((6-acetyl-8-cyclopentyl-5-methyl-7-oxo-7,8-dihydropyrido[2,3-d]pyrimidin-2-yl)amino)pyridin-3-yl)piperidin-4-yl)glycyl)piperidin-4-yl)amino)-N-(6-(dimethylamino)pyridazin-3-yl)-6-(isopropylamino)nicotinamide] | < 50 nM
[2H]C([2H])([2H])Nc1ccc(C(=O)Nc2ccc(N(C)C)nn2)c(NC2CC3(CC(NC(=O)C(C)N4CCN(c5ccc(Nc6ncc7c(C)c(C(C)=O)c(=O)n(C8CCCC8)c7n6)nc5)CC4)C3)C2)n1 (stereo not shown) [CPD-438, 2-((6-(2-(4-(6-((6-acetyl-8-cyclopentyl-5-methyl-7-oxo-7,8-dihydropyrido[2,3-d]pyrimidin-2-yl)amino)pyridin-3-yl)piperazin-1-yl)propanamido)spiro[3.3]heptan-2-yl)amino)-N-(6-(dimethylamino)pyridazin-3-yl)-6-((methyl-d3)amino)nicotinamide] | 50 to 100 nM
CCCn1nc(NC(=O)c2ccc(NC)nc2NC2CC3(CC(NC(=O)CN4CCN(c5ccc(Nc6ncc7c(C)c(C(C)=O)c(=O)n(C8CCCC8)c7n6)nc5)CC4)C3)C2)cc1C (stereo not shown) [CPD-314, 2-((6-(2-(4-(6-((6-acetyl-8-cyclopentyl-5-methyl-7-oxo-7,8-dihydropyrido[2,3-d]pyrimidin-2-yl)amino)pyridin-3-yl)piperazin-1-yl)acetamido)spiro[3.3]heptan-2-yl)amino)-N-(5-methyl-1-propyl-1H-pyrazol-3-yl)-6-(methylamino)nicotinamide] | > 100 nM
CNc1ccc(C(=O)Nc2ccc(N(C)C)nn2)c(NCC23CC(NC(=O)CN4CCN(c5ccc(Nc6ncc7c(C)c(C(C)=O)c(=O)n(C8CCCC8)c7n6)nc5)CC4)(C2)C3)n1 [CPD-345, 2-(((3-(2-(4-(6-((6-acetyl-8-cyclopentyl-5-methyl-7-oxo-7,8-dihydropyrido[2,3-d]pyrimidin-2-yl)amino)pyridin-3-yl)piperazin-1-yl)acetamido)bicyclo[1.1.1]pentan-1-yl)methyl)amino)-N-(6-(dimethylamino)pyridazin-3-yl)-6-(methylamino)nicotinamide] | > 100 nM
